In US12589143B2, “Human anti-PD-L1 peptide vaccines and methods of their use” (priority 2019, dated 2026):
Values joined by “and” are separate entries in the source; they are usually repeats but may differ in a detail not shown here. Identical values can stand only once. Where no end group is shown, it is not given here.

System: MVF-PD-L1 peptide immunogen
Experiment: Immunogenicity in Balb/c mice, experiment 1 (CT26 WT): ELISA of sera vs each MVF-PD-L1 peptide immunogen
Type: in vivo
Settings: for Immunogenicity (titers) 1′ Conc. 1:: Balb/c mice
Method: Immunogenicity of MVF-PD-L1 B-cell epitopes. New Zealand White rabbits were immunized with 1 mg of each MVF-peptide immunogens dissolved in dd H2O emulsified (1:1) in Montanide ISA 720 vehicle (Seppic) with 333 μg of N-acetylglucosamine-3yl-acetyl-1-alanyl-d-isoglutamine (nor-MDP). Rabbits were boosted with the same doses at 3-week's intervals. Blood was collected via the central auricular artery in rabbits. Blood was collected weekly (1Y+3, 2Y+1, 2Y+2,2Y+3, 3Y+1, 3Y+2 and sera tested for antibody titers by ELISA using the immunogens MVF-PD-L1 peptides. Sera (terminal) from rabbit (3Y+3) immunized with MVF-PD-1 peptide immunogens were tested individually versus the immunogen by ELISA. 200 ng/well peptide were used in duplicates to coat the ELISA plates. Titers are defined as the highest dilution of sera with an absorbance value of 0.2 after subtracting the blank.
FIGS. 5A, 5B, 5C, and 5D show the experimental scheme to test the immunization with PD-L1 in Balb/c mice. […] Balb/c mice 6-8 weeks old, were immunized with MVF-peptide immunogens emulsified in ISA 720 with nor-MDP three times and three weeks apart. Mice were immunized with MVF-PD-L1 vaccine constructs [PD-L1(36-53), PD-L1(50-67), PD-L1(95-112), PD-L1(130-147)] prior to tumor challenge. Blood was collected weekly and sera tested for antibody titers by ELISA. Two weeks after the third immunization (3Y), the mice were engrafted with CT26 WT tumor cells 10^5 per mouse Control mice were treated twice weekly with PBS as negative control and twice weekly with anti-mPD-L1 mAb (10F.9G2) as positive control starting 2 days after tumor challenge. Tumor growths were observed twice weekly and measured by calipers.
Immunogenicity of MVF-PD-L1 peptides in BALB/c mice immunized with various peptide constructs. Sera collected weekly were tittered against each individual MVF-PD-L1 peptide immunogen. The Pink bar refers to titers versus PD-L1 130 and the red bar refers to titers versus PD-1 (92-110).
In order to verify the efficacy of the PD-L1 epitope vaccines in vivo in the CT26 carcinoma cell line, Balb/c mice (10 mice/group) were immunized with 100 μg each of MVF-PD-L1 (36-53), MVF-PD-L1 (50-67), MVF-PD-L1 (95-112) and MVF-PD-L1 (130-147) emulsified with nor-MDP and Montanide 720 (1:1 ratio) SCHEME 1A (FIG. 5A). As detailed in SCHEME 1A-D (FIGS. 5A, 5B, 5C, and 5D), mice were immunized 3 times at 3 weeks intervals. […] All PD-L1 epitopes elicited high titers of PD-L1 anti-peptide antibodies by ELISA. […] We also investigated the combination of PD-1(92-110) with PD-L1-130-147.
For each peptide, vaccine antibodies were raised in New Zealand white rabbits, purchased from Charles River Laboratories (Wilmington, MA, USA). Rabbits were immunized with 1 mg of MVF chimeric peptide emulsified in Montanide ISA 720 (Seppic, Paris, France) and boosted 3 times at three week intervals. For mouse experiments, mice, 6-8 weeks old, were immunized with 0.1 mg of peptide emulsified in ISA720 (1:1 ratio). Mice were boosted with the respective doses at 3-week intervals. Blood was then collected and sera were tested for antibody titers. Sera were collected weekly and peptide vaccine antibodies were purified by affinity chromatography using a protein A/G column and the concentration was measured using Spectrophometer. All experiments were performed in accordance with the U.S. Public Health Service Policy on Humane Care and Use of Laboratory animals and approved by the Ohio State University Institutional Animals Care and Use Committee, detailed in the accepted protocol.
6-8 weeks old BALB/c mice (Charles River, Wilmington, MA) were used as standard animal models. Mouse CT26 colon carcinoma cell line was purchased from American Type Culture Collection Cells and were regularly cultured in RPMI1640 medium containing 10% FBS. CT26/HER2 cells were kindly provided by M. Penichet. Vaccines were dissolved in sterile water and emulsified in Montanide ISA 720 (1:1). […]

Q: How did the “Immunogenicity (titers) 1′ Conc. 1:” value (bleed 1Y + 3) turn out when “KLLSLIKGVIVHRLEGVEGPSLVTSEHELTCQAEGYPKAE (KLLSLIKGVIVHRLEGVEGPSLVTSEHELTCQAEGYPKAE-NH2) [PD-L1(130)]” was run?
A: 12800

Q: What about the “Immunogenicity (titers) 1′ Conc. 1:” value (bleed 2Y + 1) of the same sequence?
A: 12800

Q: And the “Immunogenicity (titers) 1′ Conc. 1:” value (bleed 2Y + 2)?
A: >12800

Q: What about the “Immunogenicity (titers) 1′ Conc. 1:” value (bleed 2Y + 3) of the same sequence?
A: 128000

Q: What about the “Immunogenicity (titers) 1′ Conc. 1:” value (bleed 3Y + 1) of the same sequence?
A: 128000

Q: And the “Immunogenicity (titers) 1′ Conc. 1:” value (bleed 3Y + 2)?
A: 64000

Q: And the “Immunogenicity (titers) 1′ Conc. 1:” value (bleed 3Y + 3)?
A: 64000

Q: And the “ELISA absorbance of sera” value (bleed 1Y + 3 (1to100), dilution 100, primary antibody dilution 1:100)?
A: 1.571 and 1.562

Q: And the “ELISA absorbance of sera” value (bleed 1Y + 3 (1to100), dilution 200, primary antibody dilution 1:200)?
A: 1.513 and 1.428

Q: What about the “ELISA absorbance of sera” value (bleed 1Y + 3 (1to100), dilution 400, primary antibody dilution 1:400) of the same sequence?
A: 1.359 and 1.348

Q: And the “ELISA absorbance of sera” value (bleed 1Y + 3 (1to100), dilution 800, primary antibody dilution 1:800)?
A: 1.151 and 1.105

Q: And the “ELISA absorbance of sera” value (bleed 1Y + 3 (1to100), dilution 1,600)?
A: 0.888 and 0.871

Q: What about the “ELISA absorbance of sera” value (bleed 1Y + 3 (1to100), dilution 3,200) of the same sequence?
A: 0.580 and 0.528

Q: What about the “ELISA absorbance of sera” value (bleed 1Y + 3 (1to100), dilution 6,400) of the same sequence?
A: 0.348 and 0.314

Q: And the “ELISA absorbance of sera” value (bleed 1Y + 3 (1to100), dilution 12,800)?
A: 0.204 and 0.196

Q: What about the “ELISA absorbance of sera” value (bleed 2Y + 1 (1to100), dilution 100, primary antibody dilution 1:100) of the same sequence?
A: 1.492 and 1.522

Q: What about the “ELISA absorbance of sera” value (bleed 2Y + 1 (1to100), dilution 200, primary antibody dilution 1:200) of the same sequence?
A: 1.511 and 1.473

Q: What about the “ELISA absorbance of sera” value (bleed 2Y + 1 (1to100), dilution 400, primary antibody dilution 1:400) of the same sequence?
A: 1.450 and 1.355

Q: And the “ELISA absorbance of sera” value (bleed 2Y + 1 (1to100), dilution 800, primary antibody dilution 1:800)?
A: 1.299 and 1.243

Q: What about the “ELISA absorbance of sera” value (bleed 2Y + 1 (1to100), dilution 1,600) of the same sequence?
A: 1.049 and 0.898

Q: And the “ELISA absorbance of sera” value (bleed 2Y + 1 (1to100), dilution 3,200)?
A: 0.757 and 0.652

Q: And the “ELISA absorbance of sera” value (bleed 2Y + 1 (1to100), dilution 6,400)?
A: 0.461 and 0.403

Q: And the “ELISA absorbance of sera” value (bleed 2Y + 1 (1to100), dilution 12,800)?
A: 0.286 and 0.239

Q: And the “ELISA absorbance of sera” value (bleed 2Y + 2 (1to100), dilution 100)?
A: 1.483 and 1.544

Q: What about the “ELISA absorbance of sera” value (bleed 2Y + 2 (1to100), dilution 200) of the same sequence?
A: 1.510 and 1.484

Q: And the “ELISA absorbance of sera” value (bleed 2Y + 2 (1to100), dilution 400)?
A: 1.508 and 1.469

Q: And the “ELISA absorbance of sera” value (bleed 2Y + 2 (1to100), dilution 800)?
A: 1.407 and 1.322

Q: What about the “ELISA absorbance of sera” value (bleed 2Y + 2 (1to100), dilution 1,600) of the same sequence?
A: 1.252 and 1.192

Q: And the “ELISA absorbance of sera” value (bleed 2Y + 2 (1to100), dilution 3,200)?
A: 0.977 and 0.852

Q: What about the “ELISA absorbance of sera” value (bleed 2Y + 2 (1to100), dilution 6,400) of the same sequence?
A: 0.704 and 0.577

Q: And the “ELISA absorbance of sera” value (bleed 2Y + 3 (1to1k), dilution 100)?
A: 1.227 and 1.226

Q: And the “ELISA absorbance of sera” value (bleed 2Y + 3 (1to1k), dilution 200)?
A: 1.175 and 1.183

Q: What about the “ELISA absorbance of sera” value (bleed 2Y + 3 (1to1k), dilution 400) of the same sequence?
A: 1.164 and 1.091

Q: What about the “ELISA absorbance of sera” value (bleed 2Y + 3 (1to1k), dilution 800) of the same sequence?
A: 1.040 and 0.957

Q: And the “ELISA absorbance of sera” value (bleed 2Y + 3 (1to1k), dilution 1,600)?
A: 0.846 and 0.797

Q: And the “ELISA absorbance of sera” value (bleed 2Y + 3 (1to1k), dilution 3,200)?
A: 0.665 and 0.655

Q: What about the “ELISA absorbance of sera” value (bleed 2Y + 3 (1to1k), dilution 6,400) of the same sequence?
A: 0.432 and 0.397

Q: And the “ELISA absorbance of sera” value (bleed 3Y + 1 (1to1k), dilution 100)?
A: 1.387 and 1.385

Q: And the “ELISA absorbance of sera” value (bleed 3Y + 1 (1to1k), dilution 200)?
A: 1.327 and 1.336

Q: And the “ELISA absorbance of sera” value (bleed 3Y + 1 (1to1k), dilution 400)?
A: 1.315 and 1.233

Q: What about the “ELISA absorbance of sera” value (bleed 3Y + 1 (1to1k), dilution 800) of the same sequence?
A: 1.176 and 1.081

Q: What about the “ELISA absorbance of sera” value (bleed 3Y + 1 (1to1k), dilution 1,600) of the same sequence?
A: 0.955 and 0.901

Q: And the “ELISA absorbance of sera” value (bleed 3Y + 1 (1to1k), dilution 3,200)?
A: 0.752 and 0.740

Q: And the “ELISA absorbance of sera” value (bleed 3Y + 1 (1to1k), dilution 6,400)?
A: 0.488 and 0.449

Q: And the “ELISA absorbance of sera” value (bleed 3Y + 2 (1to1k), dilution 100)?
A: 1.562 and 1.601

Q: What about the “ELISA absorbance of sera” value (bleed 3Y + 2 (1to1k), dilution 200) of the same sequence?
A: 1.394 and 1.374

Q: And the “ELISA absorbance of sera” value (bleed 3Y + 2 (1to1k), dilution 400)?
A: 1.156 and 1.199

Q: What about the “ELISA absorbance of sera” value (bleed 3Y + 2 (1to1k), dilution 800) of the same sequence?
A: 0.867 and 0.876

Q: What about the “ELISA absorbance of sera” value (bleed 3Y + 2 (1to1k), dilution 1,600) of the same sequence?
A: 0.656 and 0.658

Q: What about the “ELISA absorbance of sera” value (bleed 3Y + 2 (1to1k), dilution 3,200) of the same sequence?
A: 0.439 and 0.431

Q: What about the “ELISA absorbance of sera” value (bleed 3Y + 2 (1to1k), dilution 6,400) of the same sequence?
A: 0.286

Q: What about the “ELISA absorbance of sera” value (bleed 3Y + 3 (1to1k), dilution 100) of the same sequence?
A: 1.823 and 1.827

Q: What about the “ELISA absorbance of sera” value (bleed 3Y + 3 (1to1k), dilution 200) of the same sequence?
A: 1.614 and 1.704

Q: And the “ELISA absorbance of sera” value (bleed 3Y + 3 (1to1k), dilution 400)?
A: 1.411 and 1.516

Q: What about the “ELISA absorbance of sera” value (bleed 3Y + 3 (1to1k), dilution 800) of the same sequence?
A: 1.110 and 1.208

Q: And the “ELISA absorbance of sera” value (bleed 3Y + 3 (1to1k), dilution 1,600)?
A: 0.752 and 0.880

Q: What about the “ELISA absorbance of sera” value (bleed 3Y + 3 (1to1k), dilution 3,200) of the same sequence?
A: 0.445 and 0.537

Q: And the “ELISA absorbance of sera” value (bleed 3Y + 3 (1to1k), dilution 6,400)?
A: 0.243
